The results in this text go back to patent publication US8273398B2, “Geranylamine derivates of oxalic acid” (Symrise AG, priority 2008, dated 2012).

Experiment [1] deals with panel of trained testers. Put plainly: Taste profile of the pure substance in saline or sugar solution, tasting by a panel of trained testers. Particulars: for Taste profile: pure substance in saline or sugar solution; for Umami character: own tests, tasting. The format is in vivo, human. An excerpt: The ethyl ester (3) of a partially hydrogenated geranyl derivate has already been described in the literature (Maslozhirovaya Promyshlennost 1983, 4, 26-27). In the context of our own tests the corresponding methyl ester (4) during tasting by a panel of trained testers was described as very neutral; the corresponding methyl amine (5) was assigned fruity notes (see Table 2 contained within the examples of the present text). In the following, selected substances manufactured according to the general instructions described above are presented. In each case the taste profiles have been determined by determining the taste impression of the respective substance as a pure substance in saline or sugar solution and therefore deviate from the taste impressions (in beef extracts) shown in Table 1 and FIG. 1. The following structures are further examples from this substance class, prepared and tasted according to AAV 1 and AAV 2—on the basis of various alcohols and amines.

Experiment [2] is described as follows: Sensory profile in American beef extract base (Table 1, FIG. 1). The format is in vivo. Further details: scale not given here. An excerpt: This is also shown in Table 1 and the spider diagram in FIG. 1, in which an American beef extract as a base is compared with such a base plus the addition of 10 ppm of a compound (I) according to the invention and/or 10 ppm of a compound of formula (II) according to the invention and with such a base plus the addition of 0.05 weight % of MSG (monosodium glutamate).

Experiment [3] relates to panel of trained test persons. Kind of experiment: Application in green tea drink, tasting panel. The format is in vivo, human. Particulars: green tea drink with 0.008 weight % of a 1% solution in propylene glycol. The protocol: The green tea concentrate is mixed with a 1% solution of N-((E)-3,7-dimethyl-octa-2,6-dienyl)-oxalamide methyl ester (I) in propylene glycol. Then it is topped up with demineralized water and thoroughly mixed again. The product is then filtered, packaged ready for consumption and sterilized at 118° C.

The mark [4] stands for this setting: beef extract + 0.05 weight % MSG.

For the molecule `CNC(=O)C(=O)OC/C=C(\C)CCC=C(C)C`, the Taste profile result in experiment [1] is “soapy, flowery, per- fumey”.
On the same count and under the same terms, the result for `COC(=O)C(=O)NCC=C(C)C` reads “taste of its own, sol- vent”.
As to `CNC(=O)C(=O)NCC=C(C)C`, in experiment [1], the Taste profile result was “neutral”.
Consider `COC(=O)C(=O)NCCC(C)CCCC(C)C` (stereo not shown), for which the Taste profile result in experiment [1] was “fatty, bitter, metallic”.
`CNC(=O)C(=O)NCCC(C)CCCC(C)C` (stereo not shown): in experiment [1], the Taste profile entry is “neutral”.
In the case of `N[C@@H](CCC(=O)O)C(=O)[O-].[Na+]` [MSG, monosodium glutamate, reference compound], in experiment [2] (setting [4]), the “Baked, roasted” value was found to be 5.00; the Bitter is reported as 1.35; the Meaty was 5.47; the Metallic turned out to be 3.47. Besides, in experiment [2] (setting [4]), the Mouth-watering came to 4.53, the Mouthfeel turned out to be 5.41, the Salty turned out to be 3.29 and the Sour is 2.94. In addition, in experiment [2] (setting [4]), the Sweet worked out at 2.41 and the “Tenacity, long-lasting” value is given as 5.06.
With `CC(C)=CCC/C(C)=C/CNC(=O)C(=O)NC/C=C(\C)CCC=C(C)C` [formula (1), N,N′-Bis-((E)-3,7-dimethyl-octa-2,6-dienyl)-oxalamide], in experiment [1], the Umami character result is on record as “did not demonstrate any umami character” and the Taste profile result is listed as “neutral, slightly hot”.
As to `CC(C)=CCC/C(C)=C\CNC(=O)C(=O)NC/C=C(/C)CCC=C(C)C` [formula (2), N,N′-Bis-((Z)-3,7-dimethyl-octa-2,6-dienyl)-oxalamide], in experiment [1], the Umami character result was “did not demonstrate any umami character” and the Taste profile result is “neutral, slight burning”.
Regarding `COC(=O)C(=O)NCCC(C)CCC=C(C)C` (stereo not shown) [formula (4)], the Taste profile entry in experiment [1] (listed as (4)) is “very neutral”; in experiment [1] (listed as drawing 23), “neutral”.
Regarding `CNC(=O)C(=O)NCCC(C)CCC=C(C)C` (stereo not shown) [formula (5)], the Taste profile entry in experiment [1] (listed as (5)) is “fruity notes”; in experiment [1] (listed as drawing 24), “fruity”.
Consider `CCOC(=O)C(=O)NC/C=C(\C)CCC=C(C)C` [formula (6), N-((E)-3,7-dimethyl-octa-2,6-dienyl)-oxalic acid amide-ethyl-ester], for which, in experiment [1], the Taste profile entry was “musty, herbaceous and chemical”.
With `CCNC(=O)C(=O)NC/C=C(\C)CCC=C(C)C` [formula (7)], the figures for the Taste profile result in experiment [1] (listed as (7)) and in experiment [1] (listed as drawing 19) were “very neutral” and “neutral”, respectively.
With `COC(=O)C(=O)NC/C=C(\C)CCC=C(C)C` [formula (I), N-((E)-3,7-dimethyl-octa-2,6-dienyl)-oxalic acid amide-methyl-ester], the “Taste compared with the unflavored green tea base” value in experiment [3] is reported as “markedly preferable”. Moreover, in experiment [2] (beef extract + 10 ppm compound), the “Baked, roasted” value came to 3.55; the Bitter worked out at 1.36; the Meaty turned out to be 4.55; the Metallic is recorded as 3.82. In experiment [2] (beef extract + 10 ppm compound), the Mouth-watering was 3.64, the Mouthfeel came to 4.45, the Salty stood at 2.64 and the Sour was found to be 2.91. Also, in experiment [2] (beef extract + 10 ppm compound), the Sweet is listed as 1.36 and the “Tenacity, long-lasting” value is 3.73. For the same molecule, in experiment [1], the Umami character entry was “clear umami taste” and the Taste profile entry is “sweet, full, prickling, umami”.
In the case of `CNC(=O)C(=O)NC/C=C(\C)CCC=C(C)C` [formula (II), N-((E)-3,7-dimethyl-octa-2,6-dienyl)-N′-methyl-oxalamide], in experiment [2] (beef extract + 10 ppm compound), the “Baked, roasted” value was found to be 4.27; the Bitter came out at 1.00; the Meaty is listed as 5.09; the Metallic is reported as 3.55. Besides, in experiment [2] (beef extract + 10 ppm compound), the Mouth-watering is 4.14, the Mouthfeel was 4.73, the Salty was determined as 2.82 and the Sour is given as 2.45. In experiment [2] (beef extract + 10 ppm compound), the Sweet was 2.27 and the “Tenacity, long-lasting” value is 4.64. Besides, in experiment [1], the Umami character entry is recorded as “clear umami taste” and the Taste profile entry is “meaty, full, metallic, umami”.
`COC(=O)C(=O)NC/C=C(/C)CCC=C(C)C` [formula (III), N-((Z)-3,7-dimethyl-octa-2,6-dienyl)-oxalic acid amide-methyl-ester]: in experiment [1], the Umami character result is listed as “do not in fact have any umami character” and the Taste profile result is listed as “musty, bitter, long-lasting”.
The like results for `CNC(=O)C(=O)NC/C=C(/C)CCC=C(C)C` [formula (IV), N-((Z)-3,7-dimethyl-octa-2,6-dienyl)-N′-methyl-oxalamide] were, in that order, “do not in fact have any umami character” and “sour”.
